In experiment [1] the test system is gram negative bacilli. The conditions noted are these: cited from earlier work.
The subject of experiment [2] is fungi. The conditions noted are these: cited from earlier work.
The test system of experiment [3] is Coxsackie virus A21. Conditions: cited from earlier work.
The subject of experiment [4] is rhinovirus. The conditions noted are these: cited from earlier work.
The test system of experiment [5] is AIDS. Nature of the experiment: clinical use in AIDS patients (case history, fusidic acid added to the therapeutic regimen). It is filed as in vivo, human. The method, then: Since it is known that fusidic acid can penetrate phagocytic cells and kill intracellular bacteria, fusidic acid was administered to AIDS patients with opportunistic infections in the hope that it might assist other antibiotics in combatting these infections. […] The present invention is based on this unexpected finding.
The patient, a person with a past history of hepatitis (HBsAG positive) and recurrent seborrhoic dermatitis was well until 1984 when they consulted a physician since they were suffering from lethargy, fever and weight loss. […] They remained stable with no further deterioration until 1986 when they suffered further weight loss and diarrhoea. […] Mycobacterium hominis was grown from both the stool and the blood following the detection of acid fast bacilli in a lymph node biopsy. The patient was given isoniazid, ethambutol and rifampicin as well as antiparasitic and local antifungal therapy. After six weeks of treatment there was no improvement with respect to their symptoms and they continued to lose weight (16 kg since admission). […] (orally) was added to their regimen. Two weeks following commencement they became afebrile, began to put on weight and was able to undergo a transurethral prostectomy, following which they returned to work and has been well since. Two months later they had increased their weight by 10 kg.

The subject of experiment [6] is RF. Kind of experiment: in vitro test for anti-HIV activity: prevention of infection of a CD4 positive cell line. It is filed as cell-based. Conditions: Human immunodeficiency virus 1, isolate RF, read-out: concentration required to prevent infection of the CD4 positive cell line. The text has this: (§1) In the in vitro test for anti-HIV activity, a CD4 positive cell line was used.

For experiment [7], the system named is HIV prototype isolate CBL-1. The experiment is described as above. The format is cell-based. Conditions: Human immunodeficiency virus 1, read-out: concentration able to inhibit the HIV prototype isolate CBL-1 from infecting the CD4 positive cell line.
From the text: as §1

Molecules are shown by their SMILES.

For the molecule `CC(=O)O[C@H]1C[C@@]2(C)[C@@H](C[C@@H](O)[C@H]3[C@@]4(C)CC[C@@H](O)[C@@H](C)[C@@H]4CC[C@@]32C)/C1=C(\CCC=C(C)C)C(=O)O` [fusidic acid], the “activity against gram negative bacilli” value in experiment [1] is reported as “weak activity”. In addition, in experiment [2], the activity against fungi entry is “weak activity”. Also, the “in vitro antiviral effect against Coxsackie virus A21” value in experiment [3] is on record as “some in vitro antiviral effect”. For the same molecule, in experiment [4], the “in vitro antiviral effect against rhinovirus” value was “some in vitro antiviral effect”. Moreover, the “general condition of AIDS patients” value in experiment [5] (AIDS patients with opportunistic infections, added to the therapeutic regimen) was “remarkable improvement”. Also, the fever status entry in experiment [5] (one AIDS patient, 500 mg t.d.s. orally added to isoniazid, ethambutol, rifampicin, antiparasitic and antifungal therapy, two weeks following commencement) was “afebrile”. This molecule showed a weight increase in experiment [5] (one AIDS patient, 500 mg t.d.s. orally added to regimen, two months later) of 10 kg. Further, the minimal effective concentration in experiment [6] was 100 µg/mL; in experiment [7] it was 50 µg/mL.

The values above are taken from patent EP0300073A1 (priority 1987, dated 1989).
